Like-named read-outs stand apart in the source and are kept apart here.
Tests used:
[1] = tested on: U2OS (human bone osteosarcoma); test: MTT cytotoxicity assay, U2OS; type: cell-based; details: 72 hr
[2] = Tryptophan fluorescent binding assay, POPC vesicles; details: 50 μM peptide, PBS pH 7.4
Method: (§1) In brief, 50 μM peptides were fixed and incubated with titrated POPC vesicles (black) or 3POPC/1POPG vesicles (grey) at concentrations of 0, 12.5, 25, 50, 100, 250, 500, 1000, 2500, and 5000 μM in phosphate buffered saline (1X, pH 7.4). The lipid concentration that causes 50% peptide binding was determined using a tryptophan fluorescent binding assay and the values are shown as lipid per peptide.
(§2) The lipids 1-palmitoyl-2-oleoyl-sn-glycero-3-phosphocholine (POPC), 1-palmitoyl-2-oleoyl-snglycero-3-phospho-(1′-rac-glycerol) (POPG) were purchased from Avanti Polar Lipids and dissolved in chloroform. Large unilamellar vesicles (LUVs) were produced by extrusion through 100 nm pore filter using an extruder and filters purchased from Avanti Polar Lipids.
(§3) Peptides (50 μM) and POPC/POPG LUVs (600 μM) were prepared in 10 mM phosphate buffer (pH 7.0). The solutions were incubated and measured after 60 minutes. Excitation was fixed at 280 nm (slit 9 nm) and emission was collected from 300 to 450 nm (slit 9 nm). The spectra were recorded using a Synergy H1 Hybrid Multi-Mode Reader (FIG. 3A) and Cytation™ 5 Cell Imaging Multi-Mode Reader (FIG. 2) from BioTek and were averaged over 3 scans.
(§4) Table 3 illustrates the lipid concentration-induced 50% peptide binding onto a liposome. 50 μM peptide was fixed and incubated with titrated lipid (POPC vesicles or 3POPC/1POPG vesicles) at concentrations of 0, 12.5, 25, 50, 100, 250, 500, 1000, 2500, and 5000 μM in phosphate buffered saline (1X, pH 7.4). The lipid concentration that causes 50% peptide binding was determined using tryptophan fluorescent binding assay and the values are shown as lipid per peptide. IN-terminus is free, C-terminus: —W—NH2.

[3] = Tryptophan fluorescent binding assay, 3POPC/1POPG vesicles; details: 50 μM peptide, PBS pH 7.4
Method: as §1, §2, §3, §4

[4] = ANTS/DPX liposome leakage assay, POPC vesicles; type: biochemical; details: 0.5 mM vesicles
Method: (§5) In brief, 0.5 mM POPC vesicles (grey) or POPC:POPG vesicles (ratio 3:1, black) were incubated with peptide concentrations of 0, 0.02, 0.04, 0.08, 0.16, 0.32, 0.64, 1.25, 2.5, 5, 10, and 20 μM in each A) hydrochloric acid-adjusted phosphate buffered saline (1X, pH 4.8) and B) phosphate buffered saline (1X, pH 7.4).
as §2
(§6) 5 mM ANTS (8-aminonaphthalene-1,3,6-trisulfonic acid, disodium salt) and 12.5 mM DPX (p-xylene-bis-pyridinium bromide) were entrapped in 0.1 μm diameter extruded vesicles with lipids. Gel filtration chromatography using a Sephadex G-100 (GE Healthcare Life Sciences Inc) was used to remove external free ANTS/DPX from LUVs with entrapped contents. LUVs were diluted to 0.5 mM and used to measure the leakage activity by addition of aliquots of peptides. Leakage was measured after 3 h incubation. 10% Triton was used as the positive control to measure the maximum leakage of the vesicle. Fluorescence emission spectra were recorded using excitation and emission wavelength of 350 nm and 510 nm for ANTS/DPX using a BioTek Synergy H1 Hybrid Multi-Mode Reader.
(§7) Table 4 illustrates peptide concentration-induced 50 ANTS/DPX liposome leakage. 0.5 mM POPC and 3POPC/1POPG vesicles were fixed and incubated with titrated peptide concentration (0, 0.02, 0.04, 0.08, 0.16, 0.32, 0.64, 1.25, 2.5, 5, 10, and 20 μM) each in phosphate buffered saline (1X, pH 7.4) and hydrochloric acid-adjusted phosphate buffered saline (1X, pH 4.8). The values are shown as lipid per peptide. IN-terminus is free, C-terminus: —W—NH2.

[5] = tested on: HEK293T (human embryonic kidney cell); test: MTT cytotoxicity assay, HEK293T; type: cell-based; details: 72 hr, MTT; read-out: IC50 HEK293T
[6] = tested on: HMLER (human breast cancer bulk cell); test: MTT cytotoxicity assay, HMLER; type: cell-based; details: 72 hr, MTT; read-out: IC50 HMLER
[7] = ANTS/DPX liposome leakage assay, 3POPC/1POPG vesicles; type: biochemical; details: for Peptide Concentration-induced 50% ANTS/DPX leakage at pH 4.8 (L/P) 3POPC/1POPG Vesicle / Peptide Concentration-induced 50% ANTS/DPX leakage at pH 7.4 (L/P) 3POPC/1POPG Vesicle: 0.5 mM vesicles; for liposome leakage activity from anionic vesicle at pH 4.8: compared with zwitterionic vesicle
Method: as §5, §2, §6, §7

[8] = tested on: MCF-10A (human breast epithelial cell); test: cells
Description: HMLER (human mammary endothelial cancer cells), HMLER-shEcad (human mammary endothelial cancer stem cells), and MCF-10A (healthy human mammary endothelial) cells were maintained in Mammary Epithelial Cell Growth Medium (MEGM) with supplements and growth factors: bovine pituitary extract (BPE), hydrocortisone, human epidermal growth factor (hEGF), insulin, and gentamicin/amphotericin-B. HEK293T (human embryonic kidney cell), and U2OS (homo sapiens bone osteosarcoma) cells were maintained in Dulbecco's Modified Eagle's Medium (DMEM) with a final concentration of 10% fetal bovine serum. The cells were grown in T75 flask at 310 K in a humidified atmosphere containing 5% CO2.
The colourimetric MTT (3-(4,5-dimethylthiazol-2-yl)-2,5-diphenyltetrazolium bromide) assay was used to determine the toxicity of the anti-cancer peptides and conventional anti-cancer drugs. 5×10^3 cells were seeded in each well of a 96-well microplate. The cells were incubated overnight. Elevated concentrations of the compounds (0, 0.1, 0.2, 0.4, 0.8, 1.6, 3.1, 6.3, 12.5, 25, 50 and 100 μM) were added and incubated for 72 hr with a total volume 200 μL. The stock solutions of the compounds were prepared as 5 mM solutions in DMSO and diluted using media or in pure water. The final concentration of DMSO in each well was either 0.5% or 0% and this amount was present in the untreated control. After 72 hr, 20 μL of a 4 mg/mL solution of MTT in PBS was added to each well, and the plate was incubated for an additional 4 hr. The MEGM/MTT mixture was aspirated and 100 μL of DMSO was added to dissolve the resulting purple formazan crystals. The absorbance of the solutions in each well was read at 550 nm wavelength. Absorbance values were normalized to either DMSO-containing or non DMSO-containing control wells and plotted as concentration of test compound versus % cell viability. ICso values were interpolated from the resulting dose dependent curves.
The peptides were screened against several different human cell lines and their cytotoxicity were determined. Cell lines utilised include MCF-10A (human breast epithelial cell), HMLER (human breast cancer bulk cell), HMLER-shEcad (human breast cancer stem cell), HEK293T (human embryonic kidney cell), and U2OS (human bone osteosarcoma).

[9] = tested on: HMLER-shEcad (human breast cancer stem cell); test: MTT cytotoxicity assay, HMLER-shEcad; type: cell-based; details: 72 hr, MTT; read-out: IC50 HMLER-shEcad
[10] = read-out: IC50 MCF-10A, 72 hr, MTT

CC(C)C[C@H](NC(=O)CN)C(=O)N[C@@H](CC(C)C)C(=O)N[C@@H](CCC(=O)O)C(=O)N[C@@H](CC(C)C)C(=O)N[C@@H](CC(C)C)C(=O)N[C@@H](CCC(=O)O)C(=O)N[C@@H](CC(C)C)C(=O)N[C@@H](CC(C)C)C(=O)N[C@@H](CC(C)C)C(=O)N[C@@H](Cc1c[nH]cn1)C(=O)N[C@@H](C)C(=O)N[C@@H](C)C(=O)NCC(=O)N[C@@H](Cc1c[nH]c2ccccc12)C(N)=O [EEH]
IC50 [1]: 19.6 ± 3.96 µM
Lipid Concentration-induced 50% Peptide Binding (L/P) POPC Vesicle [2]: 0.50 L/P
Lipid Concentration-induced 50% Peptide Binding (L/P) 3POPC/1POPG Vesicle [3]: 0.50 L/P
Peptide Concentration-induced 50% ANTS/DPX leakage at pH 4.8 (L/P) POPC Vesicle [4]: 58 L/P
Peptide Concentration-induced 50% ANTS/DPX leakage at pH 7.4 (L/P) POPC Vesicle [4]: 738 L/P
IC50 [5]: 12.9 ± 0.14 µM
IC50 [6]: 3.3 ± 0.14 µM
Peptide Concentration-induced 50% ANTS/DPX leakage at pH 4.8 (L/P) 3POPC/1POPG Vesicle [7]: 168 L/P
Peptide Concentration-induced 50% ANTS/DPX leakage at pH 7.4 (L/P) 3POPC/1POPG Vesicle [7]: 755 L/P
liposome leakage activity from anionic vesicle at pH 4.8 [7]: relatively higher liposome leakage activity
IC50 [8]: ≥ 100 µM
IC50 [9]: 3.6 ± 0.85 µM

CC(C)C[C@H](NC(=O)CN)C(=O)N[C@@H](CC(C)C)C(=O)N[C@@H](CCC(=O)O)C(=O)N[C@@H](CC(C)C)C(=O)N[C@@H](CC(C)C)C(=O)N[C@@H](Cc1c[nH]cn1)C(=O)N[C@@H](CC(C)C)C(=O)N[C@@H](CC(C)C)C(=O)N[C@@H](CC(C)C)C(=O)N[C@@H](CCC(=O)O)C(=O)N[C@@H](C)C(=O)N[C@@H](C)C(=O)NCC(=O)N[C@@H](Cc1c[nH]c2ccccc12)C(N)=O [EHE]
IC50 [1]: 18.2 ± 1.06 µM
Lipid Concentration-induced 50% Peptide Binding (L/P) POPC Vesicle [2]: 0.44 L/P
Lipid Concentration-induced 50% Peptide Binding (L/P) 3POPC/1POPG Vesicle [3]: 0.44 L/P
Peptide Concentration-induced 50% ANTS/DPX leakage at pH 4.8 (L/P) POPC Vesicle [4]: 75 L/P
Peptide Concentration-induced 50% ANTS/DPX leakage at pH 7.4 (L/P) POPC Vesicle [4]: 952 L/P
IC50 [5]: 13 µM
IC50 [6]: 3.9 ± 0.28 µM
Peptide Concentration-induced 50% ANTS/DPX leakage at pH 4.8 (L/P) 3POPC/1POPG Vesicle [7]: 384 L/P
Peptide Concentration-induced 50% ANTS/DPX leakage at pH 7.4 (L/P) 3POPC/1POPG Vesicle [7]: 706 L/P
liposome leakage activity from anionic vesicle at pH 4.8 [7]: relatively higher liposome leakage activity
IC50 [8]: ≥ 100 µM
IC50 [9]: 2.55 ± 0.07 µM

CC(C)C[C@H](NC(=O)CN)C(=O)N[C@@H](CC(C)C)C(=O)N[C@@H](CCCCN)C(=O)N[C@@H](CC(C)C)C(=O)N[C@@H](CC(C)C)C(=O)N[C@@H](CCC(=O)O)C(=O)N[C@@H](CC(C)C)C(=O)N[C@@H](CC(C)C)C(=O)N[C@@H](CC(C)C)C(=O)N[C@@H](CCC(=O)O)C(=O)N[C@@H](C)C(=O)N[C@@H](C)C(=O)NCC(=O)N[C@@H](Cc1c[nH]c2ccccc12)C(N)=O [KEE]
IC50 [1]: 49.4 ± 13.3 µM
Lipid Concentration-induced 50% Peptide Binding (L/P) POPC Vesicle [2]: 0.20 L/P
Lipid Concentration-induced 50% Peptide Binding (L/P) 3POPC/1POPG Vesicle [3]: 0.20 L/P
Peptide Concentration-induced 50% ANTS/DPX leakage at pH 4.8 (L/P) POPC Vesicle [4]: 97 L/P
Peptide Concentration-induced 50% ANTS/DPX leakage at pH 7.4 (L/P) POPC Vesicle [4]: 626 L/P
IC50 [5]: 11.1 ± 1.84 µM
IC50 [6]: 3.75 ± 0.78 µM
Peptide Concentration-induced 50% ANTS/DPX leakage at pH 4.8 (L/P) 3POPC/1POPG Vesicle [7]: 108 L/P
Peptide Concentration-induced 50% ANTS/DPX leakage at pH 7.4 (L/P) 3POPC/1POPG Vesicle [7]: 657 L/P
IC50 [8]: ≥ 100 µM
IC50 [9]: 2.05 ± 0.21 µM

GLLDLLELLLEAAG [DEE]
IC50 [1]: 61 ± 1.41 µM
Lipid Concentration-induced 50% Peptide Binding (L/P) POPC Vesicle [2]: 0.63 L/P
Lipid Concentration-induced 50% Peptide Binding (L/P) 3POPC/1POPG Vesicle [3]: 0.38 L/P
Peptide Concentration-induced 50% ANTS/DPX leakage at pH 4.8 (L/P) POPC Vesicle [4]: 110 L/P
Peptide Concentration-induced 50% ANTS/DPX leakage at pH 7.4 (L/P) POPC Vesicle [4]: 644 L/P
IC50 [5]: 9.91 ± 0.44 µM
IC50 [6]: 5.55 ± 0.35 µM
Peptide Concentration-induced 50% ANTS/DPX leakage at pH 4.8 (L/P) 3POPC/1POPG Vesicle [7]: 164 L/P
Peptide Concentration-induced 50% ANTS/DPX leakage at pH 7.4 (L/P) 3POPC/1POPG Vesicle [7]: 597 L/P
IC50 [8, 10]: 8.4 ± 1.56 µM
IC50 [9]: 6.05 ± 2.76 µM

GLLDLLELLLHAAG [DEH]
IC50 [1]: 36.5 ± 3.92 µM
Lipid Concentration-induced 50% Peptide Binding (L/P) POPC Vesicle [2]: 0.75 L/P
Lipid Concentration-induced 50% Peptide Binding (L/P) 3POPC/1POPG Vesicle [3]: 1.50 L/P
Peptide Concentration-induced 50% ANTS/DPX leakage at pH 4.8 (L/P) POPC Vesicle [4]: 63 L/P
Peptide Concentration-induced 50% ANTS/DPX leakage at pH 7.4 (L/P) POPC Vesicle [4]: 620 L/P
IC50 [5]: 10.5 ± 4.67 µM
IC50 [6]: 5.35 ± 1.91 µM
Peptide Concentration-induced 50% ANTS/DPX leakage at pH 4.8 (L/P) 3POPC/1POPG Vesicle [7]: 193 L/P
Peptide Concentration-induced 50% ANTS/DPX leakage at pH 7.4 (L/P) 3POPC/1POPG Vesicle [7]: 548 L/P
IC50 [8, 10]: 20.2 ± 6.72 µM
IC50 [9]: 3.6 ± 0.42 µM

From US20230372433A1, “NANOPARTICLE FOR ANTI-CANCER PEPTIDES AND USES THEREOF” (KING'S COLLEGE LONDON, priority 2020, published 2023)
